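All cell lines were grown in 96-well plates and treated with compound for 48 hours. Abbreviation: GI50, concentration required for 50% inhibition of growth. The concentration for full growth arrest is given as TGI.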
Tests used:
Assay in all cases: NCI tumour cell line growth inhibition, 48 h
TK-10 renal = test system: TK-10 renal
MALME-3M melanoma = test system: MALME-3M melanoma
SF-539 CNS = test system: SF-539 CNS
SN12C renal = test system: SN12C renal
SK-MEL-5 melanoma = test system: SK-MEL-5 melanoma
OVCAR-5 ovarian = test system: OVCAR-5 ovarian
SNB-19 CNS = test system: SNB-19 CNS
NCI-H226 lung = test system: NCI-H226 lung
PC-3 prostate = test system: PC-3 prostate
BT-549 breast = test system: BT-549 breast

Structure (SMILES) | TGI (TK-10 renal) | TGI (MALME-3M melanoma) | TGI (SF-539 CNS) | TGI (SN12C renal) | TGI (SK-MEL-5 melanoma) | TGI (OVCAR-5 ovarian) | TGI (SNB-19 CNS) | TGI (NCI-H226 lung) | GI50 (PC-3 prostate) | TGI (PC-3 prostate) | GI50 (TK-10 renal) | GI50 (SF-539 CNS) | GI50 (SN12C renal) | GI50 (BT-549 breast) | TGI (BT-549 breast) | GI50 (SK-MEL-5 melanoma) | GI50 (OVCAR-5 ovarian) | GI50 (SNB-19 CNS) | GI50 (NCI-H226 lung) | GI50 (MALME-3M melanoma)
CC1=C(CC2C(=O)N(c3ccccc3)S(=O)(=O)NC2C)C(=O)N(c2ccccc2)S(=O)(=O)N1C (stereo not given) | > 100 µM | > 100 µM | > 100 µM | > 100 µM | > 100 µM | > 100 µM | > 100 µM | > 100 µM |  |  |  |  |  |  |  |  |  |  |  | 
C[C@@H]1O[C@@H](O[C@@H]2[C@@H](O)[C@H](OCCc3ccc(O)c(O)c3)O[C@H](CO)[C@H]2OC(=O)/C=C/c2ccc(O)c(O)c2)[C@H](O)[C@H](OC2OC[C@](O)(CO)[C@H]2O)[C@H]1O (stereo not given in full) | > 100 µM |  | > 100 µM | > 100 µM | > 100 µM | > 100 µM | > 100 µM | > 100 µM | 7.41 µM | > 100 µM | > 100 µM | > 100 µM | > 100 µM | 12 µM | 27.2 µM | > 100 µM | > 100 µM | > 100 µM | > 100 µM | 
COc1ccc(OC(=O)CC2Cc3cc(OC)c(OC)c(OC)c3-c3ccc(SC)c(=O)cc32)cc1 (stereo not given) | > 100 µM | > 100 µM | 0.54 µM | > 71.8 µM | 13 µM |  | > 100 µM | 0.782 µM |  |  |  |  |  |  |  |  |  |  |  | 
N#CCN1C(=O)c2cc([N+](=O)[O-])cc3cc([N+](=O)[O-])cc(c23)C1=O | > 79.9 µM | 28 µM | 31.8 µM | 27.9 µM | 29.8 µM | 36.1 µM | > 100 µM | 49.9 µM |  |  |  |  |  |  |  |  |  |  |  | 
CC(C)(C)c1cc2nc(c1)C(C(F)(F)F)(C(F)(F)F)OB(Br)OC2(C(F)(F)F)C(F)(F)F | 5.5 µM | 4.42 µM | 7.31 µM | 7.26 µM |  | 8.39 µM | 14.9 µM |  |  |  |  |  |  |  |  |  |  |  |  | 
CC1=C(C(=O)Nc2ccc(Cl)c(Cl)c2)C(c2ccc([N+](=O)[O-])cc2)C(C(=O)Nc2ccc(Cl)c(Cl)c2)=C(C)N1 | 55 µM | 7.06 µM | 12.1 µM | 7.3 µM | 3.39 µM | 10 µM | > 71.3 µM | 11.6 µM |  |  |  |  |  |  |  |  |  |  |  | 
COc1cc(C2(C)SCCCS2)cc(OC)c1OC | > 100 µM | > 100 µM | > 100 µM | > 100 µM | > 100 µM | > 100 µM | > 100 µM | > 100 µM |  |  |  |  |  |  |  |  |  |  |  | 
Cc1ccc(C2C3Cc4ccccc4C3=NN2c2ccc(S(=O)(=O)/N=c3\scc(-c4ccccc4)n3-c3ccccc3)cc2)cc1 (stereo not given) | 63.6 µM |  | 37.3 µM | 31.8 µM | 26 µM |  | > 100 µM | 67.2 µM | 21.3 µM | 53.2 µM | 19.1 µM | 19.5 µM | 16.8 µM | 18.8 µM | 43.3 µM | 13.2 µM |  | 64.8 µM | 21.4 µM | 
Cc1cc(=O)c2c(O)cc3c(c2o1)CC=C(COC1OC(COC2OC(CO)C(O)C(O)C2O)C(O)C(O)C1O)CO3 (stereo not given) | > 100 µM | > 100 µM | > 100 µM | > 100 µM | > 100 µM | > 100 µM | > 100 µM | > 100 µM |  |  |  |  |  |  |  |  |  |  |  | 
CN1CCc2nc3sc(C(N)=O)c(N)c3c(-c3cccs3)c2C1 | 13.1 µM | 38.4 µM | 6.79 µM | > 100 µM | 5.24 µM |  | > 100 µM | > 100 µM | 4.58 µM | > 100 µM | 3.32 µM | 2.35 µM | 2.69 µM | 3.26 µM | 35.5 µM | 1.43 µM |  | 4.34 µM | 3.16 µM | 5.06 µM

Source: PubChem BioAssay (NCI)
